US20250262214A1, “INTERMITTENT DOSING REGIMEN FOR AZENOSERTIB IN TREATING CANCER” (Zeno Management, Inc., priority 2022, published 2025)

System: MDA-MB-468 triple negative breast cancer tumor model
Assay: MDA-MB-468 triple negative breast cancer tumor model, tumor growth inhibition
Type: in vivo
Details: niraparib single agent, 50 mg/kg
Procedure: In vivo exploration of dose and schedule of Azenosertib and PARPi (niraparib, talazoparib) including exploration of alternating dosing was evaluated.

SMILES: NC(=O)c1cccc2cn(-c3ccc([C@@H]4CCCNC4)cc3)nc12 [niraparib, reference compound]
- tumor growth inhibition (TGI): 47.7%
